Data reported in patent US20070213382A1, “2-METHYLTHIAZOLIDINE-2, 4-DICARBOXYLIC ACID-CONTAINING COMBINATION PREPARATIONS” (priority 2004, published 2007).
Values after ≈ are worked out from the molar mass of the structure shown. Where two headings read alike, the source gives them in different places.

Legend:
Neuroglioma cells H4 = assay: in vitro cytotoxicity assay, crystal violet, 72 h (Example 1); format: cell-based; conditions: human gliomas cells H4, 72 h; for cytotoxic effect: N-acetylcysteine up to comparatively high concentrations
Procedure: (§1) Examinations for the in vitro cytoxicity of 2-methylthiazolidine-2,4-dicarboxylic acid and N-acetylcysteine in human tumor cell lines were carried out.
(§2) The cells were kept in culturing medium RPMI 1640 (Sigma, Munich) and in addition 10% FCS (Sigma, Munich) in 50 ml cell culture vials (Greiner) at 37° C. as well as under a 5% of CO2 atmosphere.
(§3) Monolayers of the tumor cells were prepared by dispersion of 2×10^6 tumor cells in 96-hole-plates (Greiner). After an incubation time of 24 hours the medium was replaced by a medium containing the test compounds. All assays were carried out four times.
(§4) After 72 h the quantity of living cells was determined by means of coloring with crystal violet.
(§5) For that purpose, the medium was removed from each hole in the plate, the plates were washed twice with PBS, the cells were fixed by means of PBS, containing 1% of paraformaldehyde and dried for 15 minutes at room temperature. Subsequently, the cells were rinsed with PBS and dried at room temperature.
(§6) Thereafter, the cells were colored with 1% crystal violet solution in water for two minutes, and after washing with water the optical density was determined by means of an ELISA spectrometer at 595 nm. The average values and standard deviations for the average values were determined for all four parallel tests.

[1] = tested on: Bladder carcinoma cells EJ; assay: as above; format: cell-based, human; conditions: for IC50: Homo sapiens
Procedure: as §1, §2, §3, §4, §5, §6

| Structure (SMILES) | IC50 (Neuroglioma cells H4) | cytotoxic effect (Neuroglioma cells H4) | growth of the bladder carcinoma cell line EJ ([1]; substance alone) | IC50 ([1]; alone, read-out: IC50 value for temozolomide alone) | IC50 ([1]; in the presence of 200 μg/ml 2-methylthiazolidine-2,4-dicarboxylic acid, read-out: IC50 value of temozolomide in the presence of 2-methylthiazolidine-2,4-dicarboxylic acid) | IC50 ([1]; in the presence of 1000 μg/ml N-acetylcysteine, read-out: IC50 value of temozolomide in the presence of N-acetylcysteine) |
| --- | --- | --- | --- | --- | --- | --- |
| CC1(C(=O)O)NC(C(=O)O)CS1 (stereo not shown) [2-methylthiazolidine-2,4-dicarboxylic acid] | 9.66 µg/mL (≈ 50.5 µM) | significant cytotoxic effect | not influenced | – | – | – |
| CC(=O)N[C@@H](CS)C(=O)O [N-acetylcysteine] | – | no effect | – | – | – | – |
| Cn1nnc2c(C(N)=O)ncn2c1=O [temozolomide, Temozolomide] | – | – | – | 1050 µg/mL (≈ 5430 µM) | 96.6 µg/mL | 903 µg/mL |
